# Measurements from patent US20250235465A1, “USE OF SODIUM TRANS-[TETRACHLORIDOBIS(1H-INDAZOLE)RUTHENATE(III)] TO AMELIORATE PROTEASOME INHIBITOR RESISTANCE” (Bold Therapeutics Inc., priority 2021, published 2025).
# Read-outs that look alike come from different tables or passages of the source.
# What was measured:
# MM.1S = system: MM.1S
# Experimental: (§1) The luminescent readings obtained in the assay were used to measure the percentage of cell death following treatment with increasing doses of BOLD-100 for 24 hours. Each cell line was treated in triplicate and the average cell death was used to calculate the IC50 or […] inhibitory concentration dose in these cell lines using a nonlinear regression fit.
# (§2) Proteasome inhibitors (PI) and immunomodulatory drugs (IMiD) are used as standards of care treatments in MM disease in the clinic. […] Specifically, the MM.1S cell line was developed to acquire partial resistance to proteasome inhibitors bortezomib (MM.1S BR) and carfilzomib (MM.1S CR) by treating the MM.1S cell line with increasing doses of the drugs for about 6 months and the OPM2 cell line was developed to acquire partial resistance to IMiD lenalidomide (OPM2 LR) and pomalidomide (OPM2 PR) by treating the OPM2 cell line with increasing doses of the drugs for about 6 months.
# [1] = system: OPM2 LR (lenalidomide resistant); settings: 24 hours
# Experimental: as §1, §2
# OPM2 = settings: OPM2, 24 hours
# Experimental: as §1, §2
# [2] = system: OPM2 PR (pomalidomide resistant); settings: read-out: BOLD-100 IC50, 24 hours, Example 2, FIG. 2B
# Experimental: as §1, §2
# [3] = system: MM.1S BR in presence of HS-5; settings: MM.1S BR in co-culture with HS-5, FIG. 5
# Experimental: (§3) Bone marrow stromal cells are understood to provide a protective environment for cells, insulating bone marrow cells from drug effects. […] To do this, a co-culture assay was carried out, in which MM cells were grown in co-culture with a bone marrow stromal cell line HS-5. MM cell lines adhere to stromal cells in culture and the stromal cells can provide a protective effect against drug induced apoptosis/growth inhibition. Dose response curves were generated for the PI-sensitive cell line MM.1 S, and the two PI resistant lines MM.1S BR and MM.1S CR in presence of HS-5 by standard CTG assay.
# [4] = system: MM.1S CR in presence of HS-5; settings: MM.1S CR in co-culture with HS-5, FIG. 5
# Experimental: as §3
# [5] = system: bone marrow cell line HS-5; settings: bone marrow stromal cell line HS-5, FIG. 5
# Experimental: as §3
# [6] = system: MM.1S in presence of HS-5; settings: MM.1S in co-culture with HS-5, FIG. 5
# Experimental: as §3
# XG-1 = settings: XG-1, 24 hours, Table 1
# Experimental: as §1
# H1112 = settings: H1112, 24 hours, Table 1
# Experimental: as §1
# XG-2 = settings: XG-2, 24 hours, Table 1
# Experimental: as §1
# JJN3 = settings: JJN3, 24 hours, Table 1
# Experimental: as §1
# KMS27 = settings: KMS27, 24 hours, Table 1
# Experimental: as §1
# MOLP8 = settings: MOLP8, 24 hours, Table 1
# Experimental: as §1
# [7] = system: MM.1S BR (bortezomib resistant)
# Excerpt: as §2
# [8] = read-out: BOLD-100 IC50, 24 hours, Example 2, FIG. 2A
structure (smiles),measurement,setting,value
"[Cl][Ru]([Cl])([Cl])[Cl].[Na+].c1ccc2[nH]ncc2c1.c1ccc2[nH]ncc2c1 [BOLD-100, Sodium trans-[tetrachloridobis(1H-indazole)ruthenate(III)]]",IC50,"MM.1S; 24 hours, Table 1",106 µM
same,IC50,MM.1S; [8],83 µM
same,sensitivity to BOLD-100 compared to parental OPM2,[1]; FIG. 2B,higher sensitivity
same,IC50,[1]; Table 1,108 µM
same,IC50,OPM2; Table 1,130 µM
same,IC50,"OPM2; read-out: BOLD-100 IC50, Example 2, FIG. 2B",120 µM
same,IC50,[2],51 µM
same,impact on viability,[3],negatively impact the viability
same,impact on viability,[4],negatively impact the viability
same,impact on viability,[5],minimal impact
same,impact on viability,[6],negatively impact the viability
same,IC50,XG-1,49 µM
same,IC50,H1112,72 µM
same,IC50,XG-2,54 µM
same,IC50,JJN3,Not reached
same,IC50,KMS27,128 µM
same,IC50,MOLP8,115 µM
same,IC50,[7]; [8],23 µM
same,IC50,"[7]; read-out: BOLD-100 IC50, 24 hours, FIG. 2A legend",23 µM
